Experimental data taken from patent publication US9707244B2, “Compositions and methods for treating conditions that affect epidermis” (Gencia Corporation, priority 2013, dated 2017).

Legend:
[1] = test system: AG16409 fibroblasts from a child; assay: 3D collagen cell culture system, young skin fibroblasts; format: cell-based, human
Experimental: The effects of Mitocreatine on skin fibroblasts cultured in a 3D matrix to better simulate in vivo milieu were examined. The cells were visualized by phase contrast light microscopy and their biological response to different concentrations of Mitocreatine evaluated. The 3D Collagen Cell Culture System from Millipore (Catalogue number ECM 675) was utilized.
All liquids were prepared according to manufacturer's instructions, and kept on ice. Tissue culture plates were coated with collagen by pipetting 500 μL of chilled Collagen Gel Solution into each well of a 24 well tissue culture plate. The plate was immediately transferred to a 37° C. incubator for 60 min to initiate polymerization of the collagen.
After the formation of the collagen gel, AG11073 and AG16409 cells were harvested and re-suspended at 4×10^5/mL and 1×10^6 cells were seeded onto the collagen gel. The cells were obtained using the procedure as described in Example 1.
After overnight incubation at 37° C. with 5% CO2 the media was replaced with fresh media containing various doses of Mitocreatine or the vehicle. Cells were visualized daily using phase contrast microscopy.
Fibroblasts from a person were cultured on a collagen matrix. Two days after seeding, cells were treated with a Mitocreatine at increasing amounts (0, 5, 15 and 25 μL). Five days post-treatment, collagen shrinkage was assayed by means of translucency.

[2] = test system: Human hepatocellular liver carcinoma cell line HepG2; assay: Survival of HepG2 cells treated with chemotherapeutic agents (DAPI fluorescence); format: cell-based; conditions: Cetuximab, Gemcitabine or Temozolomide; 48 hours
Experimental: Fibroblasts were incubated with increasing amounts of Mitocreatine and certain anti-neoplastic agents, such as Cetuximab, Gemcitabine and Temozolomide. After incubation, cells were washed and the number of adherent (i.e. surviving) cells was assessed by DAPI fluorescence, which was measured utilizing a plate reader (PHERA Star FS from BMG Labtech). For these experiments two kinds of cells were used. Either the Human hepatocellular liver carcinoma cell line HepG2, or the BJ human fibroblast cells, which are established from normal human foreskin. […] Mitocreatine and the antineoplastic agent were added simultaneously.

adult participants = assay: Double-blind, randomized, placebo-controlled study of 0.1% Mitocreatine lotion on the dorsum of the hand; format: in vivo, human
Experimental: This was followed by a double-blind, randomized, placebo-controlled safety and efficacy trial of 0.1% once-daily topical application of mitocreatine to the dorsum of hands. […]. After obtaining informed consent, participants were interviewed by a physician for screening for history of skin disease, allergy and general medical issues. An initial evaluation of skin on the dorsum of the hand was performed. Qualifying participants were issued the test articles and self-assessment forms, and instructed to apply the “Right hand” and “Left hand” vial contents to the dorsum of respective hands once daily, preferably in the evening. Participants were allowed the use of other cosmetics. Once a week the participants filled out the self-assessment forms as instructed during the initial evaluation. The questions in the forms pertained to comparisons of wrinkling, color, pigmented lesions, hydration, roughness and elasticity of skin between right and left hand. One question also elicited the subjective overall impression of skin appearance (better vs. worse) between the hands. […] The participants and the evaluator were blinded to the treated side until after the exit evaluation was finished.
Before the start of study a set of 30 consecutively numbered pairs of bottles containing drug or placebo creams was generated. Of these 30 pairs of bottles 15 pairs treated the right side treated and 15 pairs treated the left side with the drug. The order of right vs. left treatment pairs was random. Participants were assigned a number in the order of recruitment. 17 subjects participated in the study, whereof 15 completed the study. Two subjects dropped out of the study due to non-study related causes. Of the 15 remaining individuals, 9 had their right hand treated whereas 6 had their left hand treated. Data from initial and exit evaluations and self-report forms were tabulated and analyzed using Fisher's exact test and Pearson's chi-squared test. Skin on the dorsum of participants' hands was evaluated by a physician at the initial evaluation and at the conclusion of the study. None of the volunteers had lesions disqualifying from participation (neoplasm, large vascular lesions, wounds, burns, large scars).
The weekly self-report forms included questions about the following adverse outcomes: itching, redness, pain, swelling, blistering, other discoloration, skin cracking and dryness. Participants were also provided with a contact number and instructed to immediately report any of the listed or other worrisome events.

C57BL/6J mice = assay: Fore-limb grip strength test; format: in vivo; conditions: 10, 20, 30 mg/kg p.o. once daily for 30 days
Experimental: Group Setting: C57BL/6J mice were randomly assigned into five groups with different treatment started with balanced full-paw and fore-paw grip strength. Seventy five female mice were dosed at 4 PM for 30 consecutive days (qd). • 1. Vehicle (p.o. via oral gavage once daily for 30 days, n=15) • 2. Creatine (300 mg/kg, p.o. via oral gavage once daily for 30 days, n=15) • 3. Mitocreatine (10 mg/kg, p.o. via oral gavage once daily for 30 days, n=15) • 4. Mitocreatine (20 mg/kg, p.o. via oral gavage once daily for 30 days, n=15) • 5. Mitocreatine (30 mg/kg, p.o. via oral gavage once daily for 30 days, n=15). One hundred female mice were tested before dosing for a baseline of grip strength. 75 mice were selected and randomly assigned into 5 groups for different treatment. Seventy five mice (group 1-5) were test on day 31. Mice were allowed to acclimate to the testing room for at least 30 min before tested. All animals were marked on the tail with a permanent mark pen. Mouse was lowered towards the grid on the push-pull gauge until it grabbed with both front paws Animal was gently pulled backwards by the tail with an angle less than 15° until it released its grip of both fore-paws. The maximal fore-limb grip force was recorded on the strain gauge. Test was repeated 3 times with 15 min interval each time and the average was used. […]

[3] = test system: ARPE-19 cells, a retinal pigmented epithelial cell line; assay: DCFDA ROS production in senescent ARPE-19 cells; format: cell-based, human; conditions: forty-eight hours after treatment; increasing concentrations
Experimental: In the present invention ARPE-19 cells were used to evaluate whether Mitocreatine improves mitochondrial parameters and reduces ROS in a cell model of AMD. The cells were prematurely senescenced according to the protocol of Glotin et al. (2008). ARPE-19 cells, a retinal pigmented epithelial cell line, were prematurely senesced according to the protocol of Glotin et al. (2008). Cells were plated in a 96 well plate for analysis of reactive oxygen species (ROS) production using DCFDA, a fluorogenic dye that is oxidized by hydroxyl, peroxyl and other ROS.

Question: What does the source list for `CN(CC(=O)NCCC[P+](c1ccccc1)(c1ccccc1)c1ccccc1)C(=N)N.Cl.[Cl-]` [Mitocreatine, N^2-[ammonio(imino)methyl]-N^2-methyl-N-[3-(triphenylphosphonio)propyl] glycinamide dichloride]?
Answer: collagen translucency [1]: No change; survival of HepG2 cells [2]: not improve the survival; adverse outcomes reported by participants (adult participants; 0.1% lotion once daily, four weeks): No adverse outcomes; pathological changes noted by the evaluating physician (adult participants; 0.1% lotion once daily, final follow-up visit): No pathological changes; participants who correctly identified the treated hand (adult participants; 13/15, p=0.0074 by binomial test): 87%; participants with improvement in wrinkles (adult participants; drug hand, 7/15, p=0.0033): 45%; participants with an improvement in general skin health (adult participants; drug hand, 11/15, p=0.00025): 73%; participants with improvement in thickness (adult participants; drug hand, 13/15, p=0.0029): 87%; participants with improvement in tightness (adult participants; drug hand, 13/15, p=0.019): 87%; participants reporting an improvement in at least two measures (adult participants; drug hand, 14/15, 0.1% lotion, four weeks, p=0.0142): 93%; strength (fore limb grip force) (C57BL/6J mice): Increases Endurance and Strength; ROS production [3]: dose-independent decrease
